Experimental data published in ChEMBL document CHEMBL2440076, “New triarylpyrazoles as broad-spectrum anticancer agents: design, synthesis, and biological evaluation” (Eur J Med Chem, 2013).

Legend:
Type in all cases: functional
[1] = tested on: Malme-3M; assay: Growth inhibition of human MALME-3M cells assessed as cell growth at 3X10'-5 M after 48 hrs by sulforhodamine B assay; conditions: read-out: Activity
[2] = tested on: RPMI-8226; assay: Growth inhibition of human RPMI8226 cells assessed as cell growth at 3X10'-6 M after 48 hrs by sulforhodamine B assay; conditions: RPMI-8226, 48 h, read-out: Activity
[3] = tested on: BT-549; assay: Growth inhibition of human BT549 cells assessed as cell growth at 3X10'-7 M after 48 hrs by sulforhodamine B assay; conditions: BT-549, 48 h, read-out: Activity
[4] = Growth inhibition of human HCC2998 cells assessed as cell growth at 3X10'-5 M after 48 hrs by sulforhodamine B assay; conditions: HCC 2998, 48 h, read-out: Activity
[5] = tested on: UACC-62; assay: Growth inhibition of human UACC62 cells assessed as cell growth at 3X10'-9 M after 48 hrs by sulforhodamine B assay; conditions: UACC-62, 48 h, read-out: Activity
[6] = tested on: SNB-19; assay: Growth inhibition of human SNB19 cells assessed as cell growth at 3X10'-6 M after 48 hrs by sulforhodamine B assay; conditions: SNB-19, 48 h, read-out: Activity
[7] = tested on: HOP-62; assay: Growth inhibition of human HOP62 cells assessed as cell growth at 3X10'-6 M after 48 hrs by sulforhodamine B assay; conditions: HOP-62, 48 h, read-out: Activity
[8] = tested on: TK-10; assay: Growth inhibition of human TK10 cells assessed as cell growth at 3X10'-9 M after 48 hrs by sulforhodamine B assay; conditions: TK-10, 48 h, read-out: Activity
[9] = tested on: KM12; assay: Growth inhibition of human KM12 cells assessed as cell growth at 3X10'-8 M after 48 hrs by sulforhodamine B assay; conditions: KM12, 48 h, read-out: Activity
[10] = Growth inhibition of human Hs 578T cells assessed as cell growth at 3X10'-6 M after 48 hrs by sulforhodamine B assay; conditions: read-out: Activity
[11] = tested on: MCF7; assay: Growth inhibition of human MCF7 cells assessed as cell growth at 3X10'-5 M after 48 hrs by sulforhodamine B assay; conditions: MCF7, 48 h, read-out: Activity
[12] = tested on: SW-620; assay: Growth inhibition of human SW620 cells assessed as cell growth at 3X10'-7 M after 48 hrs by sulforhodamine B assay; conditions: SW-620, 48 h, read-out: Activity
[13] = tested on: HCT-116; assay: Growth inhibition of human HCT116 cells assessed as cell growth at 3X10'-9 M after 48 hrs by sulforhodamine B assay; conditions: HCT-116, 48 h, read-out: Activity
[14] = tested on: ACHN; assay: Growth inhibition of human ACHN cells assessed as cell growth at 3X10'-8 M after 48 hrs by sulforhodamine B assay; conditions: read-out: Activity
[15] = tested on: NCI-H23; assay: Growth inhibition of human NCI-H23 cells assessed as cell growth at 3X10'-5 M after 48 hrs by sulforhodamine B assay; conditions: NCI-H23, 48 h, read-out: Activity
[16] = tested on: SK-OV-3; assay: Growth inhibition of human SKOV3 cells assessed as cell growth at 3X10'-5 M after 48 hrs by sulforhodamine B assay; conditions: SK-OV-3, 48 h, read-out: Activity
[17] = tested on: SK-OV-3; assay: Growth inhibition of human SKOV3 cells assessed as cell growth at 3X10'-7 M after 48 hrs by sulforhodamine B assay; conditions: SK-OV-3, 48 h, read-out: Activity
[18] = tested on: OVCAR-5; assay: Growth inhibition of human OVCAR5 cells assessed as cell growth at 3X10'-6 M after 48 hrs by sulforhodamine B assay; conditions: OVCAR-5, 48 h, read-out: Activity
[19] = tested on: MOLT-4; assay: Growth inhibition of human MOLT4 cells assessed as cell growth at 3X10'-7 M after 48 hrs by sulforhodamine B assay; conditions: MOLT-4, 48 h, read-out: Activity
[20] = tested on: OVCAR-5; assay: Growth inhibition of human OVCAR5 cells assessed as cell growth at 3X10'-8 M after 48 hrs by sulforhodamine B assay; conditions: OVCAR-5, 48 h, read-out: Activity
[21] = Growth inhibition of human NCI-ADR-RES cells assessed as cell growth at 3X10'-9 M after 48 hrs by sulforhodamine B assay; conditions: read-out: Activity
[22] = tested on: OVCAR-3; assay: Growth inhibition of human OVCAR3 cells assessed as cell growth at 3X10'-9 M after 48 hrs by sulforhodamine B assay; conditions: OVCAR-3, 48 h, read-out: Activity
[23] = tested on: UACC-257; assay: Growth inhibition of human UACC257 cells assessed as cell growth at 3X10'-7 M after 48 hrs by sulforhodamine B assay; conditions: UACC-257, 48 h, read-out: Activity
[24] = tested on: OVCAR-5; assay: Growth inhibition of human OVCAR5 cells assessed as cell growth at 3X10'-9 M after 48 hrs by sulforhodamine B assay; conditions: OVCAR-5, 48 h, read-out: Activity
[25] = tested on: KM12; assay: Growth inhibition of human KM12 cells assessed as cell growth at 3X10'-5 M after 48 hrs by sulforhodamine B assay; conditions: KM12, 48 h, read-out: Activity
[26] = Growth inhibition of human HCC2998 cells assessed as cell growth at 3X10'-9 M after 48 hrs by sulforhodamine B assay; conditions: HCC 2998, 48 h, read-out: Activity
[27] = tested on: OVCAR-4; assay: Growth inhibition of human OVCAR4 cells assessed as cell growth at 3X10'-6 M after 48 hrs by sulforhodamine B assay; conditions: OVCAR-4, 48 h, read-out: Activity
[28] = tested on: SK-MEL-2; assay: Growth inhibition of human SK-MEL-2 cells assessed as cell growth at 3X10'-9 M after 48 hrs by sulforhodamine B assay; conditions: SK-MEL-2, 48 h, read-out: Activity
[29] = tested on: K562; assay: Growth inhibition of human K562 cells assessed as cell growth at 3X10'-7 M after 48 hrs by sulforhodamine B assay; conditions: K562, 48 h, read-out: Activity
[30] = tested on: NCI-H226; assay: Growth inhibition of human NCI-H226 cells assessed as cell growth at 3X10'-7 M after 48 hrs by sulforhodamine B assay; conditions: NCI-H226, 48 h, read-out: Activity
[31] = tested on: HCT-15; assay: Growth inhibition of human HCT15 cells assessed as cell growth at 3X10'-6 M after 48 hrs by sulforhodamine B assay; conditions: HCT-15, 48 h, read-out: Activity
[32] = tested on: LOX IMVI; assay: Growth inhibition of human LOXIMVI cells assessed as cell growth at 3X10'-7 M after 48 hrs by sulforhodamine B assay; conditions: read-out: Activity
[33] = tested on: NCI-H322M; assay: Growth inhibition of human NCI-H322M cells assessed as cell growth at 3X10'-8 M after 48 hrs by sulforhodamine B assay; conditions: read-out: Activity
[34] = tested on: NCI-H460; assay: Growth inhibition of human NCI-H460 cells assessed as cell growth at 5X10'-8 M after 48 hrs by sulforhodamine B assay; conditions: NCI-H460, 48 h, read-out: Activity
[35] = tested on: UO-31; assay: Growth inhibition of human UO31 cells assessed as cell growth at 5X10'-6 M after 48 hrs by sulforhodamine B assay; conditions: UO-31, 48 h, read-out: Activity
[36] = tested on: OVCAR-4; assay: Growth inhibition of human OVCAR4 cells assessed as cell growth at 5X10'-6 M after 48 hrs by sulforhodamine B assay; conditions: OVCAR-4, 48 h, read-out: Activity

| Compound | growth at 30 µM [1] | growth at 3 µM [2] | growth at 0.3 µM [3] | growth at 30 µM [4] | growth at 0.003 µM [5] | growth at 3 µM [6] | growth at 3 µM [7] | growth at 0.003 µM [8] | growth at 0.03 µM [9] | growth at 3 µM [10] | growth at 30 µM [11] | growth at 0.3 µM [12] | growth at 0.003 µM [13] | growth at 0.03 µM [14] | growth at 30 µM [15] | growth at 0.3 µM [17] | growth at 3 µM [18] | growth at 0.3 µM [19] | growth at 0.03 µM [20] | growth at 0.003 µM [21] | other results |
| --- | --- | --- | --- | --- | --- | --- | --- | --- | --- | --- | --- | --- | --- | --- | --- | --- | --- | --- | --- | --- | --- |
| COc1cc(-c2nn(-c3cccc(NC(=O)c4ccc(Cl)c(C(F)(F)F)c4)c3)cc2-c2ccncc2)ccc1Cl | -6% | 31% | 95% | 29% | 99% | 66% | 73% | 90% | 96% | 43% | 13% | 91% | 100% | 100% | 17% | 103% | 88% | 98% | 96% | 97% | growth at 30 µM [16]: 24%; growth at 0.003 µM [22]: 104%; growth at 0.3 µM [23]: 90%; growth at 0.003 µM [24]: 96%; growth at 30 µM [25]: 17%; growth at 0.003 µM [26]: 95%; growth at 3 µM [27]: 62%; growth at 0.003 µM [28]: 92%; growth at 0.3 µM [29]: 115%; growth at 0.3 µM [30]: 84%; growth at 3 µM [31]: 50%; growth at 0.3 µM [32]: 86%; growth at 0.03 µM [33]: 90% |
| O=C(Nc1cccc(-n2cc(-c3ccncc3)c(-c3ccc(Cl)c(O)c3)n2)c1)Nc1ccc(Cl)c(Cl)c1 | -15% | 10% | 106% | -27% | 99% | 23% | 35% | 96% | 92% | -1% | 2% | 101% | 94% | 103% | -1% | 98% | 42% | 101% | 96% | 100% | growth at 0.003 µM [22]: 96%; growth at 0.3 µM [23]: 93%; growth at 0.003 µM [24]: 96%; growth at 30 µM [25]: -56%; growth at 0.003 µM [26]: 95%; growth at 3 µM [27]: 28%; growth at 0.003 µM [28]: 98%; growth at 0.3 µM [29]: 110%; growth at 0.3 µM [30]: 94%; growth at 3 µM [31]: 14%; growth at 0.3 µM [32]: 90%; growth at 0.03 µM [33]: 100% |
| O=C(Nc1cccc(-n2cc(-c3ccncc3)c(-c3ccc(Cl)c(O)c3)n2)c1)Nc1ccc(Cl)c(C(F)(F)F)c1 | -70% | -20% | 104% | -64% | 98% | 9% | 11% | 101% | 103% | 9% | 2% | 105% | 105% | 98% | -55% | 95% | 33% | 83% | 85% | 102% | growth at 30 µM [16]: -11%; growth at 0.003 µM [22]: 109%; growth at 0.3 µM [23]: 93%; growth at 0.003 µM [24]: 93%; growth at 30 µM [25]: -70%; growth at 0.003 µM [26]: 100%; growth at 3 µM [27]: 17%; growth at 0.003 µM [28]: 113%; growth at 0.3 µM [29]: 88%; growth at 0.3 µM [30]: 82%; growth at 3 µM [31]: 4%; growth at 0.3 µM [32]: 87%; growth at 0.03 µM [33]: 105% |
| O=C(Nc1cccc(-n2cc(-c3ccncc3)c(-c3ccc(Cl)c(O)c3)n2)c1)Nc1cc(C(F)(F)F)cc(C(F)(F)F)c1 |  |  |  |  |  |  |  |  |  |  |  |  |  |  |  |  |  |  |  |  | growth at 0.05 µM [34]: 101%; growth at 5 µM [35]: -45% |
| O=C(Nc1cccc(-n2cc(-c3ccncc3)c(-c3ccc(Cl)c(O)c3)n2)c1)c1ccc(N2CCOCC2)c(C(F)(F)F)c1 |  |  |  |  |  |  |  |  |  |  |  |  |  |  |  |  |  |  |  |  | growth at 5 µM [36]: 80%; growth at 5 µM [35]: 25% |
